This passage reports Ki results from BindingDB's records for doi:10.1021/jm9910371 (Uppsala University, 1999).

The target of this test is T1, Dimer of Gag-Pol polyprotein [501-599] (Human immunodeficiency virus 1, UniProt P03367).
T1 construct: 501-599
In words: Protease Inhibition Assay. Conditions: pH 5; 30 °C. On the procedure: Ki values were determined by using a fluorescent substrate (DABCYL-gamma-Abu-[…]EDANS). All incubations were performed at 30°C in 0.1 M sodium acetate 1 M NaCl 1 mM DTT 1 mM EDTA 3% DMSO (pH 5.0) by using 5 uM substrate and the indicated enzyme concentrations ([E]). The enzyme concentration (A280) was determined by absorption measurements.

With `CNC(=O)[C@@H](NC(=O)[C@H](OCc1ccccc1)[C@H](O)[C@@H](O)[C@@H](OCc1ccccc1)C(=O)N[C@H](C(=O)NC)C(C)C)C(C)C` [1-Valine Methylamide deriv. 1], the Ki was determined as 0.4 nM.
Under `CNC(=O)[C@@H](NC(=O)[C@H](OCc1ccc(C2CCCC(=O)C2=O)cc1)[C@H](O)[C@@H](O)[C@@H](OCc1ccc(C2CCCC(=O)C2=O)cc1)C(=O)N[C@H](C(=O)NC)C(C)C)C(C)C` (stereo partly drawn) [N1,N6-Bis[(1S)-2-methyl-1-(methylcarbamoyl)pro-pyl](2R,3R,4R,5R)-2,5-bis[4-(3-cyclohexane-1,2-dionyl)benzyloxy]-3,4-dihydroxyhexanediamide] stands 0.3 nM.

The term Ki denotes a dissociation constant, usually derived from enzyme kinetics or from competition with a known ligand. Higher therefore signals weaker binding.
